The values below come from patent US8273788B2, “Five-membered iminocyclitol derivatives as selective and potent glycosidase inhibitors: new structures for antivirals and osteoarthritis therapeutics” (Academia Sinica, Taiwan, priority 2005, dated 2012).

Where two headings read alike, the source gives them in different places.

The test system of data set [1] is human chondrosarcoma cells. Conditions: cell-associated fraction and culture supernatant; previous study; cited from earlier work.
Data set [2] addresses human N-acetyl-β-hexosaminidases. Particulars: previous study [30]; cited from earlier work.
Another data set addresses T1, α-glucosidase (Saccharomyces cerevisiae, UniProt P53341).
T1 construct: purchased Sigma Co. (St. Louis, Mo.); host or cells: baker's yeast
The experiment in a line: α-glucosidase inhibition assay (in situ screen, IC50, Ki). The data set is classed as biochemical, baker's yeast. Conditions: for IC50: pure compound. As to the method: (§1) A mixture of iminocyclitol 4, a carboxylic acid (1 equiv, Scheme 2), diisopropyl ethylamine (DIEA, 2.2 equiv), and (1H-benzotriazole-1-yl)-1,1,3,3-tetramethyl-uronium hexafluorophosphate (HBTU, 1.1 equiv) in DMSO was shaken in 96-well microtiter plates for 5 h. Crude reaction products were randomly selected (30%) and analyzed by ESI-MS to ensure the presence of the desired products. The reaction mixture was diluted by appropriate buffer solutions and transferred to another 96-well microtiter plate for screening directly without any purification. […] Assuming the amide formation is complete, the percentage of inhibition relative to the control was calculated on the basis of absorbance at 405 nm for p-nitrophenol released from their corresponding substrates.
General procedure for coupling reactions and in situ screening. To a DMSO solution (10 μL) in each well of a 96-well microtiter plate was added each carboxylic acid (10 μL from a 10 mm stock solution in DMSO, 0.1 μmol), HBTU (10 μL from a 11 mm stock solution in DMSO, 1.1 equiv, 0.11 μmol), and DIEA (10 μL from a 22 mM stock solution in DMSO, 2.2 equiv, 0.22 μmol).
(§2) Enzyme assay. General procedure for the assay with various glycosidases. The initial velocities of the hydrolysis were measured spectrophotometrically at various concentrations of p-nitrophenyl-glycopyranoside (4 mM, 2 mM, 1 mM, 0.5 mM, 0.25 mM, 0.125 mM, 0.0625 mM) at 405 nm using Bio Assay Reader (Perkin Elmer HTS 7000 Plus) at 30° C. The obtained data were fitted into the Michaelis-Menten equation by using the Kaleida Graph program to determine the apparent Km values. […] The assays performed in wells of the microtiter plate contained either sodium phosphate buffer (50 mM, pH 7, for α- and β-glucosidase, α- and β-galactosidase, α- and β-mannosidase, α-fucosidase), or Mcllvaine's buffer (25 mM, pH 6, N-acetyl-β-hexosaminidase, jack bean).
(§3) The secondary plot was generated by plotting the apparent Km values as a function of inhibitor concentrations. Ki was calculated from the negative value of the x-intercept of this plot.

Another data set concerns the target β-glucosidase. The experiment in a line: β-glucosidase inhibition assay (in situ screen, IC50, Ki). The data set is classed as biochemical, almonds. Conditions: for IC50: pure compound; for β-glucosidase Inhibition (%): reaction product at 20 μM, in situ screening. On the procedure:
as §1, §2, §3

The target of data set [3] is N-acetyl-β-hexosaminidase. The experiment in a line: N-acetyl-β-hexosaminidase inhibition assay (in situ screen, IC50, Ki). The data set is classed as biochemical, jack bean. Conditions: for IC50: pure compound, read-out: N-acetyl-β-hexosaminidse IC50; for N-acetyl-β-hexosaminidse Inhibition (%): reaction product at 30 μM, in situ screening. As to the method: as §1, §2, §3

Data set [4] concerns the target human placenta N-acetyl-β-hexosaminidase. The experiment in a line: Kinetic analysis of human placenta β-hexosaminidase. Conditions: substrate 4-MU-GNAc, pH 4.5. Format: biochemical. As to the method: Our strategy began with reductive amination of compound 5 with aldehydes of different lengths to give compounds 43-49 (FIG. 4). The intermediates were either deprotected under acidic conditions or hydrogenolysed to give primary amines 50-56. […] Thus, the inhibition studies of compounds 51-56 against human placenta N-acetyl-β-hexosaminidase were carried out. 4-Methylumbelliferyl N-acetyl-β-D-glucosaminide (4-MU-GNAc) was used as the substrate. The apparent Km and Vmax values for each substrate were calculated from the Lineweaver-Burke double reciprocal plot of [1/v]/[1/S]. The Ki values were determined from a replot of the Km (app) vs the inhibitor concentration. […] (FIG. 4). […] Compound 54 with a heptamine moiety was the strongest inhibitor. […] As the crystal structure of human β-hexosaminidase B is now avalible,^[43] its complex with 54 was modeled to reveal a narrow hydrophobic cleft in the active site, which is mainly enclosed by the side-chain groups of residues W424, Y450, […], L453 and the backbone of residues K425 and D426 (FIG. 5). The amino group at the terminal site is expected to be largely protonated when binding with the enzyme. It presumably forms a salt bridge with the secondary aglycon binding site of the enzyme.^[44] It appears that the alkyl linkage is long enough to bring the amine end near enough to have hydrogen-bond interactions with the backbone carbonyl of K425 and A447 and a possible ionic interaction with the carboxyl group of D426.
Kinetic analysis of human placenta β-hexosaminidase. Incubations were performed in a total volume of 200 μL. Unless otherwise stated, reaction mixtures contained 100 mM citrate buffer (pH 4.5), various amount of 4-methylumbelliferyl N-acetyl-β-D-glucosaminide, and various amounts of inhibitors with 0.02 mU/well of β-hexosaminidase. After incubation for 15 min at 30° C., the reaction was terminated by the addition of 0.5 M sodium glycine buffer, pH 10.5. Enzyme activity was measured by the release of 4-methylumbelliferone with the excitation wavelength of 360 nm and the emission wavelength of 460 nm.

Data set [5] deals with Japanese encephalitis virus (JEV). Particulars: earlier work [16]; cited from earlier work.
The test system of data set [6] is dengue virus serotype 2 (DEN-2). Conditions: earlier work [16]; cited from earlier work.
In another data set the test system is BHK-21 cells. The experiment in a line: XTT cell viability assay. The data set is classed as cell-based. Particulars: 10 μM, FIG. 2A. As to the method: XTT assay. To determine cell viability, a colorimetric XTT-based assay was performed (Cell Proliferation Kit II; Roche). BHK-21 cells in a 96-well plate were incubated with various concentrations of inhibitors for 2 days before the XTT labeling reagent was added to the culture medium. Cells were incubated at 37° C. for about 30 min and then read by an enzyme-linked immunosorbent assay (ELISA) reader at 450 nm (Molecular Devices).

In data set [7] the test system is Japanese encephalitis virus (JEV). The experiment in a line: Anti-JEV cell-based assay (plaque forming assay, BHK-21 cells). Particulars: for IC50: read-out: JEV IC50; for IC50 / IC90: M.O.I. = 0.1, virus production, BHK-21 cells; for IC90: read-out: JEV IC90.
Data set [8] relates to dengue virus serotype 2 (DEN-2). The experiment in a line: Anti-DEN-2 cell-based assay (plaque forming assay, BHK-21 cells). Particulars: for IC50: read-out: DEN IC50; for IC50 / IC90: M.O.I. = 0.1, virus production, BHK-21 cells; for IC90: read-out: DEN IC90.
Another data set relates to SARS-CoV. Format: cell-based, SARS-CoV (H. K. strain). Conditions: Vero E6 cells.
[9] abbreviates: reaction product at 20 μM, in situ screening.

T1 sequence (P53341 whole entry): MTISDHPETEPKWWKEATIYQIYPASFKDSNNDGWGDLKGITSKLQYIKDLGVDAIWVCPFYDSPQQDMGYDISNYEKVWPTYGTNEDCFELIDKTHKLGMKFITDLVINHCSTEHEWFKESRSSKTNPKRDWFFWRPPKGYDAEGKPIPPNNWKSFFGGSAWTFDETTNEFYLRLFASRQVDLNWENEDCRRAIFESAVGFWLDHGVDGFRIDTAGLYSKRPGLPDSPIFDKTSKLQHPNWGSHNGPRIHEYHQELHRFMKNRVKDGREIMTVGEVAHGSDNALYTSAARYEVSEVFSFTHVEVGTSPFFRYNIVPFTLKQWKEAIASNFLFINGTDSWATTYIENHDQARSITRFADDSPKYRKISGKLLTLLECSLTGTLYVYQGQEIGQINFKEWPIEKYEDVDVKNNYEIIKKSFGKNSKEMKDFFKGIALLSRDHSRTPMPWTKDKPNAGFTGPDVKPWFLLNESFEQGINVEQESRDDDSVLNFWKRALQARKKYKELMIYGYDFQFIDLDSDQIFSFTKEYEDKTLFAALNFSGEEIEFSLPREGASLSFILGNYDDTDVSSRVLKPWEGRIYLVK

As for `CC(=O)NC[C@@H]1[C@@H](O)[C@H](O)[C@@H](CO)N1C` [Compound 42, (2R,3R,4R,5R)—N-methyl-2-(acetamido-methyl)-3,4-dihydroxy-5-(hydroxymethyl)pyrrolidine], the “effect on glycosaminoglycans (GAGs)” value in data set [1] was “accumulation of glycosaminoglycans (GAGs) in the cell-associated fraction and a decrease in the release of GAGs into the culture supernatant”. The Ki (commonly a dissociation constant, usually derived from enzyme kinetics or from competition with a known ligand) in [2] was 0.024 µM.

With `CC(=O)NC[C@H]1N[C@H](CO)[C@@H](O)[C@@H]1O` [Compound 5], the IC50 (as a rule, the concentration at which inhibition is half-maximal) on α-glucosidase was 280 µM; at β-glucosidase it was greater than 500 µM; in [3], 0.16 µM. The inhibition (commonly the relative decrease from the control value, in per cent) at 20 µM against α-glucosidase (setting [9]) came out at 12%. Besides, in the data set with β-glucosidase, the “β-glucosidase Inhibition (%)” value came out at 20%. In data set [3], the “N-acetyl-β-hexosaminidse Inhibition (%)” value worked out at 85%. Also, the inhibition constant Ki in data set [3] (value in brackets, read-out: N-acetyl-β-hexosaminidse (Ki)) was 0.022 µM; in [2] it was 0.024 µM.

Turning to `CCCCCCCCN1C(CO)C(O)C(O)C1CNC(C)=O` (stereo not shown) [Compound 59], in data set [4], the Ki amounted to 0.16 µM.

On to `CC(=O)NCC1C(O)C(O)C(CO)N1CCCCCCCN` (stereo not shown) [Compound 54], for which the inhibition constant Ki in data set [4] turned out to be 0.0026 µM.

In turn, `CCCCCCCN1C(CO)C(O)C(O)C1CNC(C)=O` (stereo not shown) [Compound 58] yielded a Ki in data set [4] of 0.25 µM.

Regarding `CCCCCCCCCN1C[C@H](O)[C@@H](O)[C@@H](O)[C@H]1CO` [NN-DGJ, N-nonyldeoxygalactonojirimycin], the “inhibition of JEV” value in [5] was “did not inhibit”. The “inhibition of DEN-2” value in data set [6] is listed as “did not inhibit”.

Turning to `CCCCCCCCCCCCN1C(CO)C(O)C(O)C1CNC(=O)C1Cc2ccccc21` (stereo not shown) [Compound 38], the “cytotoxicity (XTT assay, cell proliferation)” value in the data set on BHK-21 cells is “low level of cytotoxicity”. Moreover, in data set [7], the IC50 worked out at 7.6 ± 0.1 µM and the 90% effect concentration (IC90) – broadly, the point of the concentration-response curve where the effect stands at 90% – was 9.7 ± 0.1 µM. Moreover, in data set [8], the IC50 is 6 ± 0.5 µM and the IC90 was determined as 9.1 ± 0.3 µM.

`CCCCCCN1C(CO)C(O)C(O)C1CNC(C)=O` (stereo not shown) [Compound 57] came in with a Ki in data set [4] of 0.18 µM.

For `CC(=O)NCC1C(O)C(O)C(CO)N1CCOCCOCCN` (stereo not shown) [Compound 56], in data set [4], the Ki came to 0.06 µM.

`CCCCCCCCCCN1C(CO)C(O)C(O)C1CNC(=O)C1Cc2ccccc21` (stereo not shown) [Compound 37]: the IC50 was 3.3 to 10 µM in the data set on SARS-CoV, 9.6 ± 0.8 µM in data set [7] and 4.7 µM in data set [8]. The IC90 in [7] turned out to be 18 ± 0.2 µM; in [8], 9.2 µM.

In the case of `O=C(NC[C@H]1N[C@H](CO)[C@@H](O)[C@@H]1O)C1Cc2ccccc21` (stereo partly shown) [Compound 24], on α-glucosidase, the “selectivity for α- over β-glucosidase” value is on record as 600 fold. Also, the values for the IC50 (against α-glucosidase; against β-glucosidase; in [3]) were 0.15 µM, 92 µM and 11 µM, respectively. Also, at α-glucosidase (setting [9]), the “α-glucosidase Inhibition (%)” value is recorded as 93%. Moreover, the Ki is 0.053 µM on α-glucosidase (text b9, read-out: Ki, α-glucosidase); 0.053 µM on α-glucosidase (text b34, read-out: Ki against yeast α-glucosidase); 0.053 µM at α-glucosidase (value in brackets, read-out: α-glucosidase (Ki)). Moreover, the “increase in activity compared to parent core 4” value at α-glucosidase (α-glucosidase) worked out at 100 fold. In addition, the “β-glucosidase Inhibition (%)” value in the data set on β-glucosidase came to 45%. Also, the “N-acetyl-β-hexosaminidse Inhibition (%)” value in data set [3] was determined as 9%. In data set [7] (at 50 and 100 μM), the “inhibition of JEV infection” value was “no inhibition”. In addition, the “inhibition of DEN-2 infection” value in data set [8] (at 50 and 100 μM) is “no inhibition”.
